Assays:
[1] = molecular target: T1, human M1 receptor (hCHRM1) (Homo sapiens, UniProt P11229); experiment: Measurement of M1 receptor positive allosteric modulator (M1PAM) activity, calcium fluorescence in CHO-K1 cells; assay type: cell-based; conditions: for activity (%) at 10 μM: 10 μM test compound, 100% = acetylcholine final concentration 1 μM, 0% = DMSO; for EC50: inflection point of concentration-dependent curve, in the presence of acetylcholine at EC20 concentration (final 0.8-1.0 nM), read-out: IP value
T1 construct: expressed in transfected cells
T1 sequence (P11229 1-460): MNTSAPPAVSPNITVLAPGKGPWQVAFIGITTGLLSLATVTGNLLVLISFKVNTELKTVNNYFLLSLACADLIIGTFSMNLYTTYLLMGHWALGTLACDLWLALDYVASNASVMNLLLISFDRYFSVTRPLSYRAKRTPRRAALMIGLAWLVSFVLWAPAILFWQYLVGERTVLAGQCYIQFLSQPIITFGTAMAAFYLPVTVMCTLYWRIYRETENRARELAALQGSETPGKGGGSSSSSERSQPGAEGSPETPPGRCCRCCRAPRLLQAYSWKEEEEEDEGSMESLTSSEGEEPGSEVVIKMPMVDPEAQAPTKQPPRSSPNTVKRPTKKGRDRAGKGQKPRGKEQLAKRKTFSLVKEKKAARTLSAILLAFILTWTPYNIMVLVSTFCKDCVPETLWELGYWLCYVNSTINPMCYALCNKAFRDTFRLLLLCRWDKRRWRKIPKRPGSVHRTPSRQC
Procedure: Measurement of M1 Receptor Positive Allosteric Modulator (M1PAM) Activity
The activity of a test compound in the presence of acetylcholine at EC20 concentration (final concentration 0.8-1.0 nM), which affords an action corresponding to about 20% of the maximum activity, was measured as PAM activity. The method is as follows. CHO-K1 cells stably expressing a human M1 receptor (hCHRM1) were plated on a 384-well black clear bottom plate (BD Falcon) at 5,000 cells/well, and cultured in an incubator at 37° C., 5% CO2 for 1 day. The medium in the cell plate was removed, and assay buffer A containing calcium indicator (Recording medium (DOJINDO LABORATORIES), 0.1% BSA (Wako Pure Chemical Industries, Ltd.), 2.5 μg/mL Fluo-4 AM (DOJINDO LABORATORIES), 0.08% Pluronic F127 (DOJINDO LABORATORIES), 1.25 mM probenecid (DOJINDO LABORATORIES)) was added at 30 μL/well. The cells were left standing in the incubator at 37° C., 5% CO2 for 30 min, and further left standing at room temperature for 30 min. A test compound prepared by diluting with assay buffer B (HBSS (Invitrogen), 20 mM HEPES (Invitrogen), 0.1% BSA) containing 3.2-4.0 nM acetylcholine was added at 10 μL/well, and the fluorescence was measured by FDSS/pCELL (Hamamatsu Photonics K.K.) for 1 min every for 1 second. With the definition that the amount of change in the fluorescence on addition of acetylcholine (final concentration 1 μM) is 100% and that on addition of DMSO instead of a test compound is 0%, the activity (%) of the test compound was calculated, and the inflection point in the concentration-dependent curve of the test compound was calculated as IP values.

MDR1 = molecular target: T2, MDR1 (Homo sapiens, UniProt P08183); experiment: MDR1 membrane permeability test; assay type: in vitro ADME; conditions: pH 7.4, efflux ratio (ER), Papp B to A / A to B, human MDR1-expressing LLC-PK1 cells, read-out: MDR1 substrate screening 1 μM (MDRSUB1)/Ratio (NUMBER)
T2 construct: expressed in transfected cells
T2 sequence (P08183 whole entry): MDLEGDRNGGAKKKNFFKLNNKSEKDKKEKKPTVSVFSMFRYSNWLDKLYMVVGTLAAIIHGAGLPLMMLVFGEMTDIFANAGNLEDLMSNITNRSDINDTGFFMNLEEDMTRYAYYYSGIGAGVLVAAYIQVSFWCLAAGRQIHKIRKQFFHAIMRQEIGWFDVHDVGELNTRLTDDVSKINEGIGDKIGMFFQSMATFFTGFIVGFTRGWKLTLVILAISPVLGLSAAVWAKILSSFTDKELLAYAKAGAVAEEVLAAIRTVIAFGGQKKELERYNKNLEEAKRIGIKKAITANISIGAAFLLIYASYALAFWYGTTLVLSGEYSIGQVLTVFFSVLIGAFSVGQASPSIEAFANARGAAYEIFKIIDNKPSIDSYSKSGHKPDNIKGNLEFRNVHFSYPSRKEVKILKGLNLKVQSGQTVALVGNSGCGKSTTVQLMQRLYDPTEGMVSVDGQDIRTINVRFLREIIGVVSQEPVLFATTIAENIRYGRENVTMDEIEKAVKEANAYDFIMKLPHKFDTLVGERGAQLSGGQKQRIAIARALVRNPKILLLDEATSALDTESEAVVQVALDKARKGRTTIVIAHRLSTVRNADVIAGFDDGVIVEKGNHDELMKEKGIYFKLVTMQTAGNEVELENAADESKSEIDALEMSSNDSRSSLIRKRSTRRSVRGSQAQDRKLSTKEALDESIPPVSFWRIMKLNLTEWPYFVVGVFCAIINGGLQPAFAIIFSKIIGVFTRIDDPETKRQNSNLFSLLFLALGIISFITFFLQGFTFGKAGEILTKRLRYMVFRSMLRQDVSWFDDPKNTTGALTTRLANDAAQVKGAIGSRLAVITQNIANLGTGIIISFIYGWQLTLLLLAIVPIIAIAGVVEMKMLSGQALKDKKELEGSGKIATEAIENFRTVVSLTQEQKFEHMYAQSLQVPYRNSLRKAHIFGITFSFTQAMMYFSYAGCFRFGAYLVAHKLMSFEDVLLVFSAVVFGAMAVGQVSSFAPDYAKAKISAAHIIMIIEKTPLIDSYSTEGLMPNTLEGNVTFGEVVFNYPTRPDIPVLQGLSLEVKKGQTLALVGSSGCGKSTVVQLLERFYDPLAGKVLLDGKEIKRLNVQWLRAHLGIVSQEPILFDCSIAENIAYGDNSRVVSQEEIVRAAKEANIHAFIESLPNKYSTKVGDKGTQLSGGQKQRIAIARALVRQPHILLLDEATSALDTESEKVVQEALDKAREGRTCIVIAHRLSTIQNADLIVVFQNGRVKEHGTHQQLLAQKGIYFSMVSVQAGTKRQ
Procedure: MDR1 Membrane Permeability Test
When MDR1 is expressed in excess in LLC-PK1 cell, which is a polar cell, MDR1 is localized in apical membrane (A), thus promoting transcellular transport from the basement membrane side (B) toward direction A. When a ratio to the transcellular transport in the opposite direction is taken and a ratio to a control cell in which a mock vector has been introduced is further taken, an efflux ratio of MDR1 to simple diffusion (corrected efflux ratio) is calculated. Similarly, when a brain/plasma concentration ratio in Mdr1(−/−) mouse is divided by a brain/plasma concentration ratio in wild-type mouse, an efflux ratio of Mdr1 to simple diffusion in BBB (Kp, brain ratio, higher value means lower central nervous system permeability) is calculated. Adachi Y. et al. (Reference 1) has reported a positive correlation between corrected efflux ratio and Kp, brain ratio (FIG. 5(C)), and efflux ratio in MDR1 expressing cell and Kp, brain ratio (FIG. 5(B)).
To confirm the central nervous system permeability of the compounds of the present invention, a MDR1 membrane permeability test was performed by the following method.
Human MDR1-expressing LLC-PK1 cells were cultured according to the report of Takeuchi et al. (Reference 2). Human MDR1-expressing LLC-PK1 cells were cultured in 10% fetal bovine serum (Invitrogen), 500 μg/ml G418 (Invitrogen), 150 ng/ml colchicine-containing M199 medium (Invitrogen) under 5% CO2 conditions at 37° C.
Transcellular transport was performed according to the report of Sugimoto et al. (Reference 3). The cells were cultured for 3 days on HTS Transwell (registered trademark) 96 well permeable support (pore size 0.4 μm, 0.143 cm^2 surface area, Corning Life Sciences) having polyethylene terephthalate membrane on which the cells had been seeded at 3.45×10^4 cells/well. After preincubation in M199 medium (containing 10 mmol/L HEPES, 1% BSA, pH 7.4) for 30 min, a drug solution (10 μmol/L digoxin, 200 μmol/L LY, […]) dissolved in M199 medium was added to the apical side or basolateral side of the Transwell by 75 or 250 μL each and the cells were cultured under 5% CO2 conditions at 37° C. After 1 hr, the sample was collected from the side opposite to the side where the drug solution was added, and the concentration of the test compound was measured by LC-MS/MS. As an internal standard substance, 100 ng/mL alprenolol and diclofenac were used. The analysis conditions were as follows.
Papp, A to B and Papp, B to A (apparent permeability) were calculated from the formula (1), and the efflux ratio (ER) was calculated from the formula (2).

Row | activity (%) at 10 μM [1] [%] | EC50 [1] [nM] | efflux ratio at 1 hr, 1 μM (MDR1) | SMILES
1 | 101 | 2.1 | 4.7 | Cc1c(Cc2ccc(-c3ccn(C)n3)nc2)cc2c(=O)n([C@H]3CCOC[C@@H]3O)cnc2c1C [Example 1, 1,5-anhydro-2,3-dideoxy-3-(7,8-dimethyl-6-((6-(1-methyl-1H-pyrazol-3-yl)pyridin-3-yl)methyl)-4-oxoquinazolin-3(4H)-yl)-L-threo-pentitol]
2 | 101 | 2 | 5.7 | Cc1cc(-c2ccc(Cc3cc4c(=O)n([C@H]5CCOC[C@@H]5O)cnc4c(C)c3C)cc2)cnn1 [Example 4, 1,5-anhydro-2,3-dideoxy-3-(7,8-dimethyl-6-(4-(6-methylpyridazin-4-yl)benzyl)-4.-oxoquinazolin-3(4H)-yl)-L-threo-pentitol]
3 | 97 | 1.4 | 4.8 | Cc1c(Cc2ccc(-c3cn(C)nn3)cc2)cc2c(=O)n([C@H]3CCOC[C@@H]3O)cnc2c1C [Example 8, 1,5-anhydro-2,3-dideoxy-3-(7,8-dimethyl-6-(4-(1-methyl-1H-1,2,3-triazol-4-yl)benzyl)-4-oxoquinazolin-3(4H)-yl)-L-threo-pentitol]
4 | 109 | 3.3 | 2.1 | Cc1c(Cc2ccc(-c3cnn(C)c3)cc2)cc2c(=O)n([C@H]3CCOC[C@@H]3O)cnc2c1C [Example 9, 1,5-anhydro-2,3-dideoxy-3-(7,8-dimethyl-6-(4-(1-methyl-1H-pyrazol-4-yl)benzyl)-4-oxoquinazolin-3(4H)-yl)-L-threo-pentitol]
5 | 100 | 0.91 | 17 | Cc1c(Cc2ccc(-c3cnn(C)c3)nc2)cc2c(=O)n([C@H]3CCOC[C@@H]3O)cnc2c1Cl [Example 11, 1,5-anhydro-3-(8-chloro-7-methyl-6-((6-(1-methyl-1H-pyrazol-4-yl)pyridin-3-yl)methyl)-4-oxoquinazolin-3(4H)-yl)-2,3-dideoxy-L-threo-pentitol]
6 | 101 | 1 | 38 | Cc1c(Cc2ccc(-c3ccn(C)n3)nc2)cc2c(=O)n([C@H]3CCOC[C@@H]3O)cnc2c1Cl [Example 13, 1,5-anhydro-3-(8-chloro-7-methyl-6-((6-(1-methyl-1H-pyrazol-3-yl)pyridin-3-yl)methyl)-4-oxoquinazolin-3(4H)-yl)-2,3-dideoxy-L-threo-pentitol]
7 | 106 | 1 | 24 | CNC(=O)c1ccc(Cc2cc3c(=O)n([C@H]4CCOC[C@@H]4O)cnc3c(C)c2C)cc1 [Example 18, 1,5-anhydro-2,3-dideoxy-3-(7,8-dimethyl-6-(4-(methylcarbamoyl)benzyl)-4-oxoquinazolin-3(4H)-yl)-L-threo-pentitol]
8 | 108 | 3.7 | 3.4 | Cc1c(Cc2ccc(-c3cnn(C)c3)cc2)cc2c(=O)n([C@H]3CCOC[C@@H]3O)cnc2c1F [Example 24, 1,5-anhydro-2,3-dideoxy-3-(8-fluoro-7-methyl-6-(4-(1-methyl-1H-pyrazol-4-yl)benzyl)-4-oxoquinazolin-3(4H)-yl)-L-threo-pentitol]
9 | 109 | 1.9 | 16 | Cc1c(Cc2ccc(C(=O)NC3CC(F)(F)C3)cc2)cc2c(=O)n([C@H]3CCOC[C@@H]3O)cnc2c1C [Example 25, 1,5-anhydro-2,3-dideoxy-3-(6-(4-((3,3-difluorocyclobutyl)-carbamoyl)benzyl)-7,8-dimethyl-4-oxoquinazolin-3(4H)-yl)-L-threo-pentitol]
10 | 110 | 1.4 | 23 | Cc1c(Cc2ccc(C(=O)NC3COC3)cc2)cc2c(=O)n([C@H]3CCOC[C@@H]3O)cnc2c1C [Example 27, 1,5-anhydro-2,3-dideoxy-3-(7,8-dimethyl-6-(4-(oxetan-3-ylcarbamoyl)benzyl)-4-oxoquinazolin-3(4H)-yl)-L-threo-pentitol]
11 | 112 | 1.6 | 12 | Cc1c(Cc2ccc(C(=O)NCC3CC3)cc2)cc2c(=O)n([C@H]3CCOC[C@@H]3O)cnc2c1C [Example 29, 1,5-anhydro-3-(6-(4-((cyclopropylmethyl)carbamoyl)-benzyl)-7,8-dimethyl-4-oxoquinazolin-3 (4H)-yl)-2,3-dideoxy-L-threo-pentitol]
12 | 111 | 1.8 | 20 | Cc1c(Cc2ccc(C(=O)NC3CCOC3)cc2)cc2c(=O)n([C@H]3CCOC[C@@H]3O)cnc2c1C (stereo partly drawn) [Example 33, 1,5-anhydro-2,3-dideoxy-3-(7,8-dimethyl-4-oxo-6-(4-(tetrahydrofuran-3-ylcarbamoyl)benzyl)quinazolin-3 (4H)-yl)-L-threo-pentitol]
13 | 112 | 3.3 |  | Cc1c(Cc2ccc(C(=O)NCC(C)(C)O)cc2)cc2c(=O)n([C@H]3CCOC[C@@H]3O)cnc2c1C [Example 39, 1,5-anhydro-2,3-dideoxy-3-(6-(4-((2-hydroxy-2-methylpropyl)carbamoyl)benzyl)-7,8-dimethyl-4-oxoquinazolin-3 (4H)-yl)-L-threo-pentitol]
14 | 108 | 11 | 13 | COC1CN(C(=O)c2ccc(Cc3cc4c(=O)n([C@H]5CCOC[C@@H]5O)cnc4c(C)c3C)cc2)C1 [Example 41, 1,5-anhydro-2,3-dideoxy-3-(6-(4-((3-methoxyazetidin-1-yl)carbonyl)benzyl)-7,8-dimethyl-4-oxoquinazolin-3 (4H)-yl)-L-threo-pentitol]
15 | 101 | 1.1 | 20 | COCCNC(=O)c1ccc(Cc2cc3c(=O)n([C@H]4CCOC[C@@H]4O)cnc3c(C)c2C)cc1 [Example 49, 1,5-anhydro-2,3-dideoxy-3-(6-(4-((2-methoxyethyl)carbamoyl)benzyl)-7,8-dimethyl-4-oxoquinazolin-3 (4H)-yl)-L-threo-pentitol]

Reference: patent US11560372B2, “Heterocyclic compounds useful as modulators of acetylcholine receptors” (TAKEDA PHARMACEUTICAL COMPANY LIMITED, priority 2017, dated 2023)
